Legend:
Assay in all cases: c-ponatinib pulldown LC-MS/MS
Format in all cases: binding
MAP3K7 = biological target: T1, MAP3K7 (Homo sapiens, UniProt O43318)
T1 sequence (O43318 1-606): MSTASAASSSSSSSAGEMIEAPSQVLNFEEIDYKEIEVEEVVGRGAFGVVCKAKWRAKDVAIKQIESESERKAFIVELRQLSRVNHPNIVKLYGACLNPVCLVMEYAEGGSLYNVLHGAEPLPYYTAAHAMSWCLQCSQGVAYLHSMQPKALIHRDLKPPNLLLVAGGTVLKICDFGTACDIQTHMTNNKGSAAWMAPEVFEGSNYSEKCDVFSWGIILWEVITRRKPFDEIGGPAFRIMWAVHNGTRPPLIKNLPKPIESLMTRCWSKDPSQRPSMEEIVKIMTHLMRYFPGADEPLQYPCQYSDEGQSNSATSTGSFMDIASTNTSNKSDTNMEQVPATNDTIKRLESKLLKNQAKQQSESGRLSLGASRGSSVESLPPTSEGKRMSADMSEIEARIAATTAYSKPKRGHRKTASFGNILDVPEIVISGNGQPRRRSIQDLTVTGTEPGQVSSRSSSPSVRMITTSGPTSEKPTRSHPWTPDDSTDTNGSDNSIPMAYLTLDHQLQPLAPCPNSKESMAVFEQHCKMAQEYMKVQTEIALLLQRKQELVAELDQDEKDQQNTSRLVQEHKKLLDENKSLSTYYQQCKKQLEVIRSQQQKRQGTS
Outline: (§1)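 Whole cell lysate (10 mg) was first passed over immobilized c-ponatinib, and bound proteins were eluted. After reduction, alkylation and tryptic digestion, the peptides were analysed by LC-MS/MS. Finally, binding specificity was assigned by a combined P-value, with or without free-compound competition.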

MAP4K4 = MAP4K4 (Homo sapiens, UniProt O95819)
Outline: as §1

TAB2 = biological target: T2, TAB2 (Homo sapiens, UniProt Q9NYJ8)
T2 sequence (Q9NYJ8 1-693): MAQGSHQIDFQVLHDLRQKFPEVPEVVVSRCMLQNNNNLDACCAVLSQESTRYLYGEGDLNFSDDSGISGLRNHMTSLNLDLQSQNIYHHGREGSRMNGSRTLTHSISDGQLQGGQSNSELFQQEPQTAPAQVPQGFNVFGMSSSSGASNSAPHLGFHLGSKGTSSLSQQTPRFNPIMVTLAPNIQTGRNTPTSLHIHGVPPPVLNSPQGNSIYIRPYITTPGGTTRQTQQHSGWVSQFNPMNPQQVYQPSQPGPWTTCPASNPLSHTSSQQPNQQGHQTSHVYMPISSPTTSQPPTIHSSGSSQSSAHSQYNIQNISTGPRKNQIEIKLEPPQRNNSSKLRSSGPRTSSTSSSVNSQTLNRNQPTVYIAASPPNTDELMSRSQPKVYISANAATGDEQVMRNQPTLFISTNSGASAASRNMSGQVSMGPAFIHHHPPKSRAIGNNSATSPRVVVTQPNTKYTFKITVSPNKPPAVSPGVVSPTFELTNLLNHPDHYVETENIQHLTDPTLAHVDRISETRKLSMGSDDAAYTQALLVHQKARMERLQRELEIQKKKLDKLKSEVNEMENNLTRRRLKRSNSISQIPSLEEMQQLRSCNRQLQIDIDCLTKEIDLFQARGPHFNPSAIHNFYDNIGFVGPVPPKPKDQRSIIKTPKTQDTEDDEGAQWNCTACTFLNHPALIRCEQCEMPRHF
T2 sequence (O43318 1-606 partner): T1 sequence (O43318 1-606)
Outline: as §1

TYK2 = TYK2 (Homo sapiens, UniProt P29597)
Outline: as §1

Chain of TYK2 (P29597 whole entry): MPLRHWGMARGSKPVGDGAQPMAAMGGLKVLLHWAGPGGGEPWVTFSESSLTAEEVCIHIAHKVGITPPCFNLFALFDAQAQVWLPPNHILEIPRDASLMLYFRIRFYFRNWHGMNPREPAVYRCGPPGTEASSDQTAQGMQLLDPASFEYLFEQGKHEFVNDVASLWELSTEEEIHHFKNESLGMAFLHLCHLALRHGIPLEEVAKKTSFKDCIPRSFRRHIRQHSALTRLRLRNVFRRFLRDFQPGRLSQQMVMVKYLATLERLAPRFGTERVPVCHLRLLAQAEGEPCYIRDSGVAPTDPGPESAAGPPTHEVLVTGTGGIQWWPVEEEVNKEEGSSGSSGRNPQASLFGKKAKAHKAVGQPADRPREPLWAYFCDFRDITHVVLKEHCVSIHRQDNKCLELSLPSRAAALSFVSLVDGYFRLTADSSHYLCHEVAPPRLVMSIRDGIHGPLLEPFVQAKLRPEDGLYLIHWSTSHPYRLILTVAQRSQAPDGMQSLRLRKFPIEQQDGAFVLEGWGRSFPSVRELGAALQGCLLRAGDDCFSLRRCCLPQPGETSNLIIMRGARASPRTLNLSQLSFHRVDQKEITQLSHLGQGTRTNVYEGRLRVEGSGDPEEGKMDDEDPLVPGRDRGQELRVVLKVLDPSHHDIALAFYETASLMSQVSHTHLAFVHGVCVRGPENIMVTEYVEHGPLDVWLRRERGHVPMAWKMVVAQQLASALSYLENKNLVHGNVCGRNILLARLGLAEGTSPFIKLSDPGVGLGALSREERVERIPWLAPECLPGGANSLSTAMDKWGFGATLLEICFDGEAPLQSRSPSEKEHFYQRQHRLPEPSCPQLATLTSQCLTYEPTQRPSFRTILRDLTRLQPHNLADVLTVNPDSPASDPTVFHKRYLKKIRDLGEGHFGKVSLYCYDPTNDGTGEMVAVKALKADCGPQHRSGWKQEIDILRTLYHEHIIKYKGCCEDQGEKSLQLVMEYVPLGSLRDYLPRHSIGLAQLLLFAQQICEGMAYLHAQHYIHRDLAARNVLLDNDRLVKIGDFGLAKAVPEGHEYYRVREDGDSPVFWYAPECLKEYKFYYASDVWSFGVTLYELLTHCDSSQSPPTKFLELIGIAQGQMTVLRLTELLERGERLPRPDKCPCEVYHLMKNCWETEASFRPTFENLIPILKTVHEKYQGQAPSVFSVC
Chain of MAP4K4 (O95819 whole entry): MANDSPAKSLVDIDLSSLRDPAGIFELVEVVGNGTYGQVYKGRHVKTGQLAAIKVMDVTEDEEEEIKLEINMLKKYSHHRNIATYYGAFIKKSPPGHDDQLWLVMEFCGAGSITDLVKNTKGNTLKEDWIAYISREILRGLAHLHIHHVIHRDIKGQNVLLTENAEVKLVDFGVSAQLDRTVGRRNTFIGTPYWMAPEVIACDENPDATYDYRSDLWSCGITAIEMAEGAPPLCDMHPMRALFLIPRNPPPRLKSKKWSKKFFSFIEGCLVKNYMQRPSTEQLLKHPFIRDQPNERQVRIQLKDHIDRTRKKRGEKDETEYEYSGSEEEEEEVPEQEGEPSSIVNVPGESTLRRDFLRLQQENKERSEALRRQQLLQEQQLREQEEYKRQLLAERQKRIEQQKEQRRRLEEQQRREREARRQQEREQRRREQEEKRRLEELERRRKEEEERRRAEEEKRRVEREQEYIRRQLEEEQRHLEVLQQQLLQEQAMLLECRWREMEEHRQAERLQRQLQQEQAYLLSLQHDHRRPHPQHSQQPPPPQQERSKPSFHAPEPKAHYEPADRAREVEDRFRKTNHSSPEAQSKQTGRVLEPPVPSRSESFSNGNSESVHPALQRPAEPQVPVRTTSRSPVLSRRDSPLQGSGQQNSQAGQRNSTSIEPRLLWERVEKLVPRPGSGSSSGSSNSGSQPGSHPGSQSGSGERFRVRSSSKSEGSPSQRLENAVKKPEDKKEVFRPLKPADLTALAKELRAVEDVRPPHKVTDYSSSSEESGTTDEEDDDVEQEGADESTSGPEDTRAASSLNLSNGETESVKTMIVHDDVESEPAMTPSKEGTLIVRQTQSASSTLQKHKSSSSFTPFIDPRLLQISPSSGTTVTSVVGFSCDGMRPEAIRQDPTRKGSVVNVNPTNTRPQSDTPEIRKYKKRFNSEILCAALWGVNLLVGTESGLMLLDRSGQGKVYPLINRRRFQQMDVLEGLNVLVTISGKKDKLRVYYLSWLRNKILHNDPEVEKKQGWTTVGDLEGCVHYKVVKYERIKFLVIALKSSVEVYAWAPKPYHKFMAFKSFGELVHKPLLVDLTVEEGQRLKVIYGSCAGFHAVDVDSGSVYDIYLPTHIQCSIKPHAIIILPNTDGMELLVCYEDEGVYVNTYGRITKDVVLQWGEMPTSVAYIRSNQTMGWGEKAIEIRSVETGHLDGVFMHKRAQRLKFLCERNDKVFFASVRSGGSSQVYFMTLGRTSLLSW

Av. SC comp. (MAP3K7; + free ponatinib): 2.25 | Total SC comp. (MAP3K7; + free ponatinib): 9 | Av. SC (MAP3K7; no competitor): 19.5 | Total SC (MAP3K7; no competitor): 78 | Av. SC comp. (MAP4K4; + free ponatinib): 10.75 | Total SC comp. (MAP4K4; + free ponatinib): 43 | Av. SC (MAP4K4; no competitor): 54.5 | Total SC (MAP4K4; no competitor): 218 | Av. SC comp. (TAB2; + free ponatinib): 0 | Total SC comp. (TAB2; + free ponatinib): 0 | Av. SC (TAB2; no competitor): 2.5 | Total SC (TAB2; no competitor): 10 | Av. SC comp. (TYK2; + free ponatinib): 0 | Total SC comp. (TYK2; + free ponatinib): 0 | Av. SC (TYK2; no competitor): 14 | Total SC (TYK2; no competitor): 56
Structure (SMILES): Cc1ccc(C(=O)Nc2ccc(CN3CCN(CCCN)CC3)c(C(F)(F)F)c2)cc1C#Cc1cnc2cccnn12 [c-ponatinib]

Reference: paper PMC4669708 (Cell Death & Disease, 2015)
